Results as given in paper PMC6154738, “Anti-Onchocerca and Anti-Caenorhabditis Activity of a Hydro-Alcoholic Extract from the Fruits of Acacia nilotica and Some Proanthocyanidin Derivatives” (Molecules : A Journal of Synthetic Chemistry and Natural …, 2017).
Values after ≈ are worked out from the molar mass of the structure shown. Like-named read-outs stand apart in the source and are kept apart here.

Columns and labels:
[1] = In vitro cytotoxicity (MTT) and CC50 determination; format: cell-based; conditions: human
Procedure: (§1) Cell culture: […] cells at Passage 70 were kindly provided by Prof. Hensel, Institute of Pharmaceutical Biology and Phytochemistry, University of Münster, and were cultured as previously describe by Zumdick et al..
(§2) Cytotoxicity test: The cytotoxicity assays were performed according to the method of Rahman et al.. Briefly, 1.5 × 10^4 viable cells/well were seeded in a 96-well plate and incubated for 24 to 48 h. […] DMEM samples were used as the negative control. […] The medium was removed, and formazan, generated by the activity of dehydrogenases, was solubilized with 70 µL of acidified isopropanol (0.4 M HCl). The amount of MTT-formazan that is directly proportional to the number of living cells was determined by measuring the optical density (OD) at 540 nm using a spectrophotometer. All controls used were treated equally. As control and to determine 100% growth, Caco-2 cells were grown in the absence of drugs so as to calculate cell viability. All determinations were performed in triplicate. […] The selectivity index (SI) values were calculated as the ratio: SI = CC50 of drug on Caco2/LC50 of drug on worm.

[2] = system: O. ochengi; assay: Anti-Onchocerca activity, all forms of the parasite (summary statements); conditions: read-out: LC50 against O. ochengi (all three forms)
Procedure: (§3) Adult worms (six individuals per well for males and one per well for the female) and Mf were washed twice and were subsequently transferred to RPMI-1640 medium supplemented with L-glutamine, 100 U/mL penicillin and 100 µg/mL streptomycin and incubated at 37 °C in 24-well plates (96-well plate for Mf) with different concentrations of the drugs tested. Worm mortality was checked by observation under the binocular microscope after 48 h. After shaking, immotile and fully-elongated worms were considered to be dead. All tests were done in three independent triplicate determinations.

[3] = system: O. ochengi males; assay: microbe, parasite or virus in culture; design: species or system Onchocerca ochengi
Description: The adult male worms were isolated as previously describe by Ndjonka et al. from fresh pieces of cattle skin (cow-udder) with palpable nodules obtained from the communal slaughter house of Ngaoundere in the Adamawa region of Cameroon. Nodules removed from the skin were brought to the laboratory, washed, drained and sterilized with 70% ethanol for dissection. After dissection of nodules, O. ochengi were extracted, isolated and washed three times in sterile phosphate-buffered saline (PBS). To analyze the anthelmintic activity of extract, fractions and pure compounds, the worms were incubated at 37 °C.
as §3

[4] = system: C. elegans VC722 (glc-2(ok1047) I); assay: microbe, parasite or virus in culture; conditions: for LC50: Caenorhabditis elegans, 48 h
Procedure: (§4) All strains were obtained from the Caenorhabditis Genetic Centre (CGC, Minneapolis, MN, USA). Strains were maintained at 20 °C on nematode growth medium (NGM). All worms were age-synchronized and obtained from eggs that were isolated by bleaching.
(§5) Young adult (L4 stage) worms were used to assess drug lethality. Monitored endpoint was 48 h mortality. Tests were performed in 24-well plates. Five hundred (500) microliters of test solution, which is M9-buffer (3 g KH2PO4, 6 g Na2HPO4, 5 g NaCl, 0.25 g MgSO4.7H2O, in 1 L of water after been autoclaved supplemented with 2% glucose, 0.5% cholesterol), were distributed in 24-well plates. The volume of M9-buffer equivalent to the drug to be added for each drug final concentration (in each test, three to six concentrations were used) was removed. Untreated worms in M9-buffer were used as negative control. […] Crude extract fraction (stock solution at 100 mg/mL) and pure compound (stock solution at 100 mg/mL) previously dissolved in M9-buffer were then added in well plates at increasing concentration (varying from 0 to 1000 or 1500 µg/mL for extract and fractions; 0 to 100 or 150 µg/mL). The young adult (10 to 15 ± 2) from the axenic culture (without food source) were then added at the test solution. […] Treatments were replicated three times.

[5] = system: C. elegans CB3474 (ben-1(e1880) III); assay: microbe, parasite or virus in culture; conditions: Caenorhabditis elegans, 48 h
Procedure: as §4, §5

[6] = system: C. elegans N2 Bristol WT; assay: microbe, parasite or virus in culture
Procedure: as §4, §5

[7] = system: C. elegans ZZ16 (lev-9(x16) X); assay: microbe, parasite or virus in culture; conditions: Caenorhabditis elegans, 48 h
Procedure: as §4, §5

[8] = system: C. elegans CB211 (lev-1(e211) IV); assay: microbe, parasite or virus in culture; conditions: Caenorhabditis elegans, 48 h
Procedure: as §4, §5

[9] = system: C. elegans DA1316 (avr-14(ad1302) I avr-15(ad1051) glc-1(pk54)); assay: microbe, parasite or virus in culture; conditions: for LC50: Caenorhabditis elegans, 48 h
Procedure: as §4, §5

[10] = system: Wistar rats; assay: Acute oral toxicity on rats
Description: Adult Wistar rats (Rattus norvegicus), males aged 7 to 8 weeks and weighing 150 to 200 g, used for the experiments were obtained from LANAVET (Laboratoire National Vétérinaire, Garoua, Cameroon). The rats were acclimatized for one week in the Veterinary Research Laboratory of the Institute of Agricultural Research for Development, Wakwa, Cameroon, before initiating experiments. Animals were housed in groups of three (one group for the negative control, six groups for each drug at the first phase, six others at the second phase) under ambient temperatures (23 °C ± 1 °C) with relative humidity 55 ± 5% and 12 h light/dark cycle in polycarbonate cages. […] They were monitored by a veterinarian for health status.
Acute oral toxicity (LD50, that is the dose that kills 50% of animals of the tested group) was measured using the method of the OECD guidelines for the testing of chemicals [56] following the European Community guidelines for the protection of animals used in experiments [69] and respecting the 3Rs (Replacement, Refinement, Reduction) [70]. Drugs in distilled water were orally administered separately at doses of 10 mg/kg, 100 mg/kg and 1000 mg/kg body weight. The negative controls were distilled water-administered rats. They were given to three groups of three rats each and observed for 24 h. […] The test was done at a single oral dose for each rat in a 5 mL/kg volume. The experimental animals were starved for 24 h before and 4 h after treatment. […] The appearance of toxic symptoms, such as behavioral changes, locomotion, convulsions and mortality, was observed and recorded. Animals were observed constantly for the first 30 min after administration and, thereafter, every 4 h up to 24 h and, subsequently, once a day for up to 14 days.

[11] = system: O. ochengi microfilariae; assay: microbe, parasite or virus in culture; design: species or system Onchocerca ochengi
Procedure: Microfilariae were isolated as describe by Cho-Ngwa et al. and Ndjonka et al.. About 10 skin snips were obtained from different locations of the skin. The skin snips were then incubated at 37 °C in PBS to let Mf emerge. The highly motile Mf were concentrated by centrifugation at 400× g for 10 min and quantified. The Mf were incubated at 37 °C with the crude extract, fractions and pure compounds.
as §3

[12] = system: O. ochengi females; assay: microbe, parasite or virus in culture; design: species or system Onchocerca ochengi
Procedure: The adult female worms were isolated by digestion of the nodules with collagenase at 37 °C. The female worms were cultured in a CO2-incubator [67]. For anthelmintic activity, they were incubated with the crude extracts, fractions and pure compounds.
as §3

[13] = system: Caco-2 cells; design: method as in PMID 22776719; conditions: at 127 µg/mL; cited from earlier work
[14] = system: Caco-2 cells; assay: In vitro cytotoxicity (MTT) and CC50 determination; format: cell-based
Procedure: as §1, §2

[15] = system: O. ochengi; conditions: read-out: LC50 on O. ochengi; stated in the introduction, no reference given; cited from earlier work
[16] = Caco-2, CC50 after 48 h calculated in µM, read-out: Cytotoxicity CC50, Caco-2 (in brackets) (converted)
[17] = Onchocerca ochengi, 48 h, read-out: LC50/48 h
[18] = Onchocerca ochengi, 48 h, read-out: LC50/48 h (in brackets)
[19] = SI = CC50 on Caco-2/LC50 on worm
[20] = read-out: LC50/48 h (in brackets)

O=C(OC1Cc2c(O)cc(O)cc2OC1c1ccc(O)c(O)c1)c1cc(O)c(O)c(O)c1 (single isomer, unassigned; (-)) [ECG, (−)-epicatechin-3-O-gallate] gave a CC50 at 48 h [1, 16] of 153 µM, a CC50 at 72 h ([1]; Caco-2, MTT, read-out: Cytotoxicity, means CC50 ± SD, Caco-2) of 67.6 ± 0.5 µg/mL (≈ 153 µM) and an LC50 [2] of under 2.5 µg/mL. For the same compound, the LC50 [3, 17] was 2.1 ± 0.3 µg/mL, the LC50 [3, 18] was 4.7 µM and the “Selectivity Index (SI) O. ochengi Males” value [3, 19] was 32.2. For the same compound, the LC50 ([4]; read-out: LC50/48 h) was 27.2 ± 1.4 µg/mL, the LC50 [4, 20] was 61.4 µM and the LC50 ([5]; read-out: LC50/48 h) was 19.6 ± 0.8 µg/mL. The LC50 [5, 20] was 44.2 µM, the LC50 ([6]; Caenorhabditis elegans, 48 h, read-out: LC50/48 h) was 33.8 ± 2.7 µg/mL and the “Selectivity Index (SI) C. elegans Wild Type” value [6, 19] was 2.0. For the same compound, the LC50 ([7]; read-out: LC50/48 h) was 39.5 ± 0.9 µg/mL, the LC50 [7, 20] was 76.4 µM and the LC50 ([8]; read-out: LC50/48 h) was 41.7 ± 1.2 µg/mL. The LC50 [8, 20] was 89.3 µM, the LC50 ([9]; read-out: LC50/48 h) was 27.4 ± 1.1 µg/mL and the LC50 [9, 20] was 61.9 µM. The “Mortality of rats: rat number end/start” value ([10]; Phase 1, 10 mg/kg single oral dose) was 0/3, the “Mortality of rats: rat number end/start” value ([10]; Phase 1, 100 mg/kg single oral dose) was 0/3 and the “Mortality of rats: rat number end/start” value ([10]; Phase 1, 1000 mg/kg single oral dose) was 0/3. For the same compound, the “Mortality of rats: rat number end/start” value ([10]; Phase 2, 1500 mg/kg single oral dose) was 0/3, the “Mortality of rats: rat number end/start” value ([10]; Phase 2, 3000 mg/kg single oral dose) was 0/3 and the “Mortality of rats: rat number end/start” value ([10]; Phase 2, 5000 mg/kg single oral dose) was 0/3. The LC50 [11, 17] was 1 ± 0.4 µg/mL, the LC50 [11, 18] was 2.2 µM and the “Selectivity Index (SI) O. ochengi Microfilariae” value [11, 19] was 67.6. The LC50 [12, 17] was 2.1 ± 0.6 µg/mL, the LC50 [12, 18] was 4.7 µM and the “Selectivity Index (SI) O. ochengi Females” value [12, 19] was 32.2.

In the case of procyanidin, the “Reduction of cell viability” value [13] is given as 15%.

With Ivermectin [reference compound] the CC50 [14, 16] was 140 µM, the “Cytotoxicity, means CC50 ± SD, Caco-2” value ([14]; Caco-2, MTT) was 28.7 ± 0.7 µg/mL and the LC50 ([3]; O. ochengi males, 48 h, calculated in µM, read-out: LC50/48 h (in brackets) (converted)) was 1.3 µM. For the same compound, the LC50/48 h ([3]; O. ochengi males, 48 h, mean ± SD) was 1.2 ± 0.5 µg/mL, the LC50/48 h ([4]; C. elegans VC722 (ivermectin-resistant)) was over 100 µg/mL and the LC50/48 h ([6]; C. elegans WT, 48 h, mean ± SD) was 1.2 ± 0.1 µg/mL. The LC50 ([6]; read-out: LC50/48 h (in brackets), C. elegans WT, 48 h, calculated in µM) was 1.3 µM, the LC50/48 h ([9]; C. elegans DA1316 (ivermectin-resistant)) was over 100 µg/mL and the LC50 [15] was 1.7 µM. The LC50 ([11]; O. ochengi microfilariae, 48 h, calculated in µM, read-out: LC50/48 h (in brackets) (converted)) was 1.7 µM, the LC50/48 h ([11]; O. ochengi microfilariae, 48 h, mean ± SD) was 1.5 ± 0.0 µg/mL and the LC50 ([12]; O. ochengi females, 48 h, calculated in µM, read-out: LC50/48 h (in brackets) (converted)) was 1.7 µM. It also gave an LC50/48 h ([12]; O. ochengi females, 48 h, mean ± SD) of 1.5 ± 0.3 µg/mL.
